Source: patent publication US20190192521A1, “Methods of Treating Arid1A-Mutated Cancers With HDAC6 Inhibitors and EZH2 Inhibitors” (The Wistar Institute of Anatomy and Biology, priority 2016, published 2019)

Key:
[1] = tested on: ovarian clear cell carcinoma cell lines with known ARID1A mutational status; assay: colony formation assay, panel of ovarian clear cell carcinoma cell lines with or without ARID1A mutation; assay type: cell-based, human; conditions: 12 days
Procedure: After 12 days culture, integrated density of colony formed by the indicated cells was quantified using NIH Image J software, and values were normalized to vehicle control. Data represent triplicates from independent experiments. Error bars represent S.E.M. The p-value was calculated via two-tailed t-test.
Indicated ovarian clear cell carcinoma cell lines with known ARID1A mutational status were treated with the indicated concentration of HDAC6 inhibitor CAY10603 or vehicle control in a colony formation assay. After 12 days culture, integrated density of colony formed by the indicated cells was quantified using NIH Image J software, and values were normalized to vehicle control. Data represent triplicates from independent experiments. Error bars represent S.E.M.
Colony formation assays were performed as follows. Cell lines were infected with lentivirus pLKO.1-shRNAs or pLKO.1-control with puromycin selection marker. Infected cells were selected with 1 μg/mL of puromycin for 72 hours and the selected cells were seeded in 12-well or 24-well plates. Cell medium was changed every three days with appropriate drug doses for 14 days or until control wells became confluent. Colonies were washed twice with PBS and fixed with 10% methanol and 10% acetic acid in distilled water. Fixed colonies were stained with 0.005% crystal violet. Integrated density was measured using NIH ImageJ software.

[2] = tested on: ARID1A-mutated TOV21G tumors; assay: intrabursal orthotopic xenograft, ARID1A-mutated TOV21G; assay type: in vivo, mice
Text: Luciferase-expressing ARID1A-mutated TOV21G cells were orthotopically transplanted into the ovarian bursa sac of SCID/nude female mice. Tumors were allowed to establish for 14 days before randomized into two groups (n=6/group).
During treatment at indicated time interval mice were imaged based on luciferase expression to monitor tumor growth. Total flux (photons/sec) is graphed. *p=0.0313.
ARID1A-mutated TOV21G cells were orthotopically transplanted into the ovarian bursa sac of SCID/nude female mice. Tumors were allowed to establish for 2 weeks before the mice were randomized into two different treatment groups (n=5/group). […] After stopping the treatment, the mice from the indicated groups were followed for survival. Shown is the Kaplan-Meier survival curves for ACY1215 or vehicle control treated mice. The p-value was calculated by log-rank test.
The number of disseminated tumor nodules in peritoneal cavity was quantified.
Histological score (H-score) was calculated for 5 separate fields from 6 tumors from 6 individual mice from each of the indicated groups. Error bars represent S.E.M. The p-value was calculated via two-tailed t-test.
Immunofluorescence and immunohistochemical staining was performed as follows. Immunofluorescence was performed after 48 hours as indicated by fixing samples in 4% paraformaldehyde and permeabilizing with 0.5% Triton-X. Samples were incubated with primary antibodies for 2 hours at room temperature, highly cross absorbed secondary antibodies (Invitrogen) for 1 hour at room temperature and mounted with prolong anti-fade reagent (Invitrogen). Immuno-stained cells were imaged using a Leica Confocal microscope. […] Bitler et al. Nat. Med. 2015, 21, 231-238; Bitler et al. Cancer Research 2011, 71, 6184-6194. Expression of the stained markers was scored using a histologic score (H score) as previously described. McCarty, Jr. et al. Cancer research 1986, 46, 4244s-4248s.
The intrabursal orthotopic xenograft in vivo model was performed as described previously (Bitler et al. Nat. Med. 2015, 21, 231-238; Bitler et al. Cancer Research 2011, 71, 6184-6194). The protocols were approved by the Institutional Animal Care and Use Committee (IACUC). Briefly, 1×10^6 luciferase-expressing TOV-21G or RMG1 cells were unilaterally injected into the ovarian bursa sac of immunocompromised mice (n=6 per group). Two weeks after injection, tumors were visualized by injecting luciferin (intraperitoneal (i.p.): 4 mg/mice) resuspended in PBS and imaged with an In Vivo Imaging System (IVIS). […] Images were analyzed using Live Imaging 4.0 software. At end of the experiments, tumors were surgically dissected and tumor burden was calculated based on tumor weight. Intraperitoneally disseminated tumor nodules were quantified.
Seidel et al. Epigenomics 2015, 7, 103-118. […] Santo et al. Blood 2012, 119, 2579-2589. To determine the effects of HDAC6 inhibition in vivo on the growth of ARID1A-mutated tumors, luciferase-expressing ARID1A-mutated TOV21G cells were orthotopically transplanted into the bursa-sac covering the ovary of immunocompromised nude mice to mimic the tumor microenvironment. The injected ARID1A wild-type or mutant cells were allowed to grow for 2 weeks to establish the orthotopic tumors.

[3] = dissected ARID1A-mutated tumors

O=C(CCCCCCNC(=O)c1cnc(N(c2ccccc2)c2ccccc2)nc1)NO [rocilinostat, 2-(diphenylamino)-N-(7-(hydroxyamino)-7-oxoheptyl)pyrimidine-5-carboxamide]
sensitivity of ARID1A-mutated cells compared with ARID1A wild-type cells [1]: more sensitive | growth of ARID1A-mutated tumors (luciferase total flux) ([2]; 50 mg/kg daily i.p., 21 days): significantly inhibited the growth | number of tumor nodules in peritoneal cavity ([2]; 50 mg/kg daily, 3 weeks): significant decrease in the number of tumor nodules | tumor burden (tumor weight) ([2]; 50 mg/kg daily, 3 weeks): significantly reduced the burden | survival of mice bearing ARID1A-mutated tumors ([2]; 50 mg/kg daily, 3 weeks, followed after stopping treatment): significantly improved the survival | median survival ([2]; 50 mg/kg daily, 3 weeks, vehicle control 35 days, p=0.0023): 51 days | HDAC6 expression (IHC) [2, 3]: not affected | apoptotic marker cleaved caspase 3 (IHC H-score) [2, 3]: increased | cell proliferation marker Ki67 (IHC H-score) [2, 3]: significantly decreased | p53K120Ac staining (IHC) [2, 3]: significantly increased
